This passage reports IC50 results from patent US20200216439A1, “HETERO-1,5,6,7-TETRAHYDRO-4H-INDOL-4-ONES” (BAYER PHARMA AKTIENGESELLSCHAFT, priority 2015, published 2020).

pIC50: −log10 of the molar value.

The target in the assay is T1, catalytic domain of human Bub1 (amino acids 704-1085) (Homo sapiens, UniProt O43683).
T1 construct: catalytic domain of human Bub1 (amino acids 704-1085); His6 (N); made in house; host or cells: Hi5 insect cells
In words: Bub1 kinase assay (TR-FRET). In kind it is biochemical. The settings on record: TR-FRET; ATP 10 μM, peptide substrate 1 μM; 60 min at 22° C.; average or median if tested more than once; read-out: Inhibition of Bub1 kinase IC50. The essentials: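 Eleven concentrations (0.1 nM–20 μM, duplicate) fitted by 4-parameter logistic for IC50. Read-out: EDTA-stopped TR-FRET (665/620 nm) detecting anti-phosphoserine binding to biotin-peptide (1 μM). Reaction used 10 μM ATP, 60 min at 22 °C, after 15 min compound preincubation with His-tagged human Bub1 704-1085.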

T1 sequence (O43683 704-1085): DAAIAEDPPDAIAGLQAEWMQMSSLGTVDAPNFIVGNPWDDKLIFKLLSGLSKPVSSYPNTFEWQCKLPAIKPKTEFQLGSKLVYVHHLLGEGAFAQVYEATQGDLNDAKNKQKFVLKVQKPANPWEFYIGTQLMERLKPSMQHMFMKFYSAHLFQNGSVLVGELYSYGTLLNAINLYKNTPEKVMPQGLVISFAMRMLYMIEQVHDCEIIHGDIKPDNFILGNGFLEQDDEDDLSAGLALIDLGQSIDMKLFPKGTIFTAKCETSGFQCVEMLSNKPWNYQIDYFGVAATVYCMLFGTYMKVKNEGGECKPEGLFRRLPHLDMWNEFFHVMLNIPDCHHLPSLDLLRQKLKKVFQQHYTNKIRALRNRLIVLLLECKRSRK

For the molecule `CC(C)OC(=O)N1CC(=O)c2c([nH]c(-c3ccnc(NC(=O)C(C)(C)F)c3)c2Nc2ccccc2)C1` [Example 155, Isopropyl 3-anilino-2-{2-[(2-fluoro-2-methylpropanoyl)amino]pyridin-4-yl}-4-oxo-1,4,5,7-tetrahydro-6H-pyrrolo[2,3-c]pyridine-6-carboxylate], the pIC50 was 7.22.
`CC(C)(C)C(=O)N1CC(=O)c2c([nH]c(-c3ccncc3)c2Nc2ccccc2)C1` [Example 9, 6-(2,2-Dimethylpropanoyl)-3-(phenylamino)-2-(pyridin-4-yl)-1,5,6,7-tetrahydro-4H-pyrrolo[2,3-c]pyridin-4-one]: the pIC50 is 8.40.
Then `CC(=O)Nc1cc(-c2[nH]c3c(c2Nc2ccccc2)C(=O)CN(C(=O)c2cscn2)C3)ccn1` [Example 194, N-{4-[3-Anilino-4-oxo-6-(1,3-thiazol-4-ylcarbonyl)-4,5,6,7-tetrahydro-1H-pyrrolo[2,3-c]pyridin-2-yl]pyridin-2-yl}acetamide], with 7.34.
Then `CC(=O)Nc1cc(-c2[nH]c3c(c2Nc2ccccc2)C(=O)CNC3)ccn1` [Example 24, N-{4-[4-Oxo-3-(phenylamino)-4,5,6,7-tetrahydro-1H-pyrrolo[2,3-c]pyridin-2-yl]pyridin-2-yl}acetamide], with 6.81; and `CC(C)(C)OC(=O)N1CC(=O)c2c([nH]c(-c3ccnc(N)c3)c2Nc2ccccc2)C1` [Example 13, tert-Butyl 2-(2-aminopyridin-4-yl)-4-oxo-3-(phenylamino)-1,4,5,7-tetrahydro-6H-pyrrolo[2,3-c]pyridine-6-carboxylate], with 7.40.
To `O=C1CNCc2[nH]c(-c3ccnc(NC(=O)C4(F)CC4)c3)c(Nc3ccccc3)c21` [Example 132, N-[4-(3-anilino-4-oxo-4,5,6,7-tetrahydro-1H-pyrrolo[2,3-c]pyridin-2-yl)pyridin-2-yl]-1-fluorocyclopropanecarboxamide] belongs 6.52.
